Reference: PubChem BioAssay (NCI)
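Values below derive from 48-hour exposures of cells grown in 96-well plates, with endpoints linearly interpolated between the two concentrations bracketing the appropriate inhibition level. GI50 marks 50% less growth. TGI: concentration producing complete growth inhibition.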

Columns and labels:
Test in all cases: NCI tumour cell line growth inhibition, 48 h; in the data active = GI50 below about 0.43 µM; inactive = the rest
786-0 renal = tested on: 786-0 renal
A498 renal = tested on: A498 renal
A549 NSCLC = tested on: A549 NSCLC
ACHN renal = tested on: ACHN renal
BT-549 breast = tested on: BT-549 breast
CAKI-1 renal = tested on: CAKI-1 renal
CCRF-CEM leukemia = tested on: CCRF-CEM leukemia
COLO 205 colon = tested on: COLO 205 colon
DU-145 prostate = tested on: DU-145 prostate
EKVX NSCLC = tested on: EKVX NSCLC
HCC-2998 colon = tested on: HCC-2998 colon
HCT-116 colon = tested on: HCT-116 colon
HCT-15 colon = tested on: HCT-15 colon
HL-60(TB) leukemia = tested on: HL-60(TB) leukemia
HOP-62 NSCLC = tested on: HOP-62 NSCLC
HOP-92 NSCLC = tested on: HOP-92 NSCLC
HS 578T breast = tested on: HS 578T breast
HT29 colon = tested on: HT29 colon
IGROV1 ovarian = tested on: IGROV1 ovarian
K-562 leukemia = tested on: K-562 leukemia
KM12 colon = tested on: KM12 colon
LOX IMVI melanoma = tested on: LOX IMVI melanoma
M14 melanoma = tested on: M14 melanoma
MALME-3M melanoma = tested on: MALME-3M melanoma
MCF7 breast = tested on: MCF7 breast
MDA-MB-231 breast = tested on: MDA-MB-231 breast
MDA-MB-435 = tested on: MDA-MB-435
MOLT-4 leukemia = tested on: MOLT-4 leukemia
NCI-H226 lung = tested on: NCI-H226 lung
NCI-H23 lung = tested on: NCI-H23 lung
NCI-H460 lung = tested on: NCI-H460 lung
NCI-H522 lung = tested on: NCI-H522 lung
NCI/ADR-RES ovarian = tested on: NCI/ADR-RES ovarian
OVCAR-3 ovarian = tested on: OVCAR-3 ovarian
OVCAR-4 ovarian = tested on: OVCAR-4 ovarian
OVCAR-5 ovarian = tested on: OVCAR-5 ovarian
OVCAR-8 ovarian = tested on: OVCAR-8 ovarian
PC-3 prostate = tested on: PC-3 prostate
RPMI-8226 leukemia = tested on: RPMI-8226 leukemia
RXF 393 renal = tested on: RXF 393 renal
SF-268 CNS = tested on: SF-268 CNS
SF-295 CNS = tested on: SF-295 CNS
SF-539 CNS = tested on: SF-539 CNS
SK-MEL-2 melanoma = tested on: SK-MEL-2 melanoma
SK-MEL-28 melanoma = tested on: SK-MEL-28 melanoma
SK-MEL-5 melanoma = tested on: SK-MEL-5 melanoma
SK-OV-3 ovarian = tested on: SK-OV-3 ovarian
SN12C renal = tested on: SN12C renal
SNB-19 CNS = tested on: SNB-19 CNS
SNB-75 CNS = tested on: SNB-75 CNS
SR leukemia = tested on: SR leukemia
SW-620 colon = tested on: SW-620 colon
T-47D breast = tested on: T-47D breast
TK-10 renal = tested on: TK-10 renal
U251 CNS = tested on: U251 CNS
UACC-257 melanoma = tested on: UACC-257 melanoma
UACC-62 melanoma = tested on: UACC-62 melanoma
UO-31 renal = tested on: UO-31 renal

OC(CNC1CCCC1)Cn1c2ccccc2c2ccccc21 (stereo unspecified)
47.7 µM: TGI (A498 renal)
56.6 µM: TGI (U251 CNS)
52.5 µM: TGI (RXF 393 renal)
42.6 µM: TGI (HOP-62 NSCLC)
73.5 µM: TGI (SF-295 CNS)
83.7 µM: TGI (HS 578T breast) | TGI (NCI-H23 lung)
82.2 µM: TGI (NCI-H522 lung)
34.7 µM: TGI (HOP-92 NSCLC)
26.5 µM: TGI (SNB-75 CNS)
inactive: GI50 (786-0 renal) 36.1 µM | GI50 (A498 renal) 10.7 µM | GI50 (A549 NSCLC) > 100 µM | GI50 (ACHN renal) 39.6 µM | GI50 (BT-549 breast) 25.1 µM | GI50 (CAKI-1 renal) > 100 µM | GI50 (CCRF-CEM leukemia) > 100 µM | GI50 (COLO 205 colon) > 100 µM | GI50 (DU-145 prostate) 82.3 µM | GI50 (EKVX NSCLC) 42.3 µM | GI50 (HCC-2998 colon) > 100 µM | GI50 (HCT-116 colon) 67.3 µM | GI50 (HCT-15 colon) 80.5 µM | GI50 (HL-60(TB) leukemia) > 100 µM | GI50 (HOP-62 NSCLC) 18.9 µM | GI50 (HOP-92 NSCLC) 14.9 µM | GI50 (HS 578T breast) 21.8 µM | GI50 (HT29 colon) > 100 µM | GI50 (IGROV1 ovarian) 72.9 µM | GI50 (K-562 leukemia) > 100 µM | GI50 (KM12 colon) > 100 µM | GI50 (LOX IMVI melanoma) > 100 µM | GI50 (M14 melanoma) > 100 µM | GI50 (MALME-3M melanoma) 37 µM | GI50 (MCF7 breast) > 100 µM | GI50 (MDA-MB-231 breast) 27.7 µM | GI50 (MDA-MB-435) > 100 µM | GI50 (MOLT-4 leukemia) > 100 µM | GI50 (NCI-H226 lung) 32.1 µM | GI50 (NCI-H23 lung) 28.4 µM | GI50 (NCI-H460 lung) > 100 µM | GI50 (NCI-H522 lung) 20 µM | GI50 (NCI/ADR-RES ovarian) 40.6 µM | GI50 (OVCAR-3 ovarian) 51.3 µM | GI50 (OVCAR-4 ovarian) > 100 µM | GI50 (OVCAR-5 ovarian) 35.9 µM | GI50 (OVCAR-8 ovarian) 27.6 µM | GI50 (PC-3 prostate) > 100 µM | GI50 (RPMI-8226 leukemia) > 100 µM | GI50 (RXF 393 renal) 16.3 µM | GI50 (SF-268 CNS) 27 µM | GI50 (SF-295 CNS) 23.7 µM | GI50 (SF-539 CNS) 24.4 µM | GI50 (SK-MEL-2 melanoma) 25.1 µM | GI50 (SK-MEL-28 melanoma) > 100 µM | GI50 (SK-MEL-5 melanoma) > 100 µM | GI50 (SK-OV-3 ovarian) 20.4 µM | GI50 (SN12C renal) 44.2 µM | GI50 (SNB-19 CNS) 29.4 µM | GI50 (SNB-75 CNS) 12.9 µM | GI50 (SR leukemia) > 100 µM | GI50 (SW-620 colon) > 100 µM | GI50 (T-47D breast) 33.9 µM | GI50 (TK-10 renal) 27.5 µM | GI50 (U251 CNS) 21.5 µM | GI50 (UACC-257 melanoma) > 100 µM | GI50 (UACC-62 melanoma) 32.7 µM | GI50 (UO-31 renal) 97.2 µM
68.6 µM: TGI (SK-MEL-2 melanoma)
80.4 µM: TGI (SF-268 CNS)
82.9 µM: TGI (SF-539 CNS)
> 100 µM: TGI (786-0 renal) | TGI (A549 NSCLC) | TGI (ACHN renal) | TGI (BT-549 breast) | TGI (CAKI-1 renal) | TGI (CCRF-CEM leukemia) | TGI (COLO 205 colon) | TGI (DU-145 prostate) | TGI (EKVX NSCLC) | TGI (HCC-2998 colon) | TGI (HCT-116 colon) | TGI (HCT-15 colon) | TGI (HL-60(TB) leukemia) | TGI (HT29 colon) | TGI (IGROV1 ovarian) | TGI (K-562 leukemia) | TGI (KM12 colon) | TGI (LOX IMVI melanoma) | TGI (M14 melanoma) | TGI (MALME-3M melanoma) | TGI (MCF7 breast) | TGI (MDA-MB-231 breast) | TGI (MDA-MB-435) | TGI (MOLT-4 leukemia) | TGI (NCI-H226 lung) | TGI (NCI-H460 lung) | TGI (NCI/ADR-RES ovarian) | TGI (OVCAR-3 ovarian) | TGI (OVCAR-4 ovarian) | TGI (OVCAR-5 ovarian) | TGI (OVCAR-8 ovarian) | TGI (PC-3 prostate) | TGI (RPMI-8226 leukemia) | TGI (SK-MEL-28 melanoma) | TGI (SK-MEL-5 melanoma) | TGI (SN12C renal) | TGI (SNB-19 CNS) | TGI (SR leukemia) | TGI (SW-620 colon) | TGI (T-47D breast) | TGI (TK-10 renal) | TGI (UACC-257 melanoma) | TGI (UACC-62 melanoma) | TGI (UO-31 renal)
43.4 µM: TGI (SK-OV-3 ovarian)
